The test system of this assay is calcifying extracellular vesicles (EVs). In words: Aggregation of calcifying extracellular vesicles in a particle counting device. Particulars: 100 μM NEM, vesicles from smooth muscle cells cultured in calcifying conditions, cell-free, 37° C., FIG. 5. The protocol:
Calcification has been previously linked to aggregation of extracellular vesicles. Therefore, vesicles were collected from smooth muscle cells cultured in calcifying conditions and incubated in cell-free conditions at 37° C. within a particle counting device. […] Aggregation of calcifying vesicles was observed by a reduction in total particles counted from 8 h to 20 h of incubation, as shown in FIG. 5. […] Without wishing to be bound by theory, it is hypothesized that this reduction is due to the inhibition of phosphate carriers on the vesicles, which blocks phosphate transport into the vesicles, and in turn preventing mineral formation.

Consider `CCN1C(=O)C=CC1=O` [NEM, N-ethylmaleimide], for which the “reduction in total particles (vesicle counts) from 8 h to 20 h of incubation” value is “mitigated the reduction in vesicle counts”.

(Values after patent US10190119B2, “Mitochondrial phosphate carrier targets for treating soft-tissue calcification” (THE BRIGHAM AND WOMEN'S HOSPITAL, INC., priority 2014, dated 2019).)
